# Experimental data taken from ChEMBL document CHEMBL1141117, “Unambiguous synthesis and prophylactic antimalarial activities of imidazolidinedione derivatives” (J Med Chem, 2005).
# System: Plasmodium falciparum
# Experiment: (§1) In vitro antimalarial activity for Plasmodium falciparum D6
# Assay type: functional, organism-based
# Settings: not given
row,SMILES,IC50 [µg/mL]
1,CC(C)N1C(=O)C(=O)N=C1NC(=N)Nc1ccc(Cl)c(Cl)c1,2.97

# System: Plasmodium falciparum
# Experiment: (§2) In vitro antimalarial activity for Plasmodium falciparum W2
# Assay type: functional, organism-based
# Settings: not given
row,SMILES,IC50 [µg/mL]
1,CC(C)N1C(=O)C(=O)N=C1NC(=N)Nc1ccc(Cl)c(Cl)c1,2.66

# System: Plasmodium falciparum
# Experiment: (§3) In vitro antimalarial activity for Plasmodium falciparum TM91C235
# Assay type: functional, organism-based
# Settings: not given
row,SMILES,IC50 [µg/mL]
1,CC(C)N1C(=O)C(=O)N=C1NC(=N)Nc1ccc(Cl)c(Cl)c1,2.59

# System: Plasmodium falciparum
# Experiment: as §1
# Assay type: functional
# Settings: not given
row,SMILES,IC90 [µg/mL]
1,CC(C)N1C(=O)C(=O)N=C1NC(=N)Nc1ccc(Cl)c(Cl)c1,12.1
2,O[C@@H](c1cc(C(F)(F)F)nc2c(C(F)(F)F)cccc12)C1CCCCN1 (stereo partly specified) [MEFLOQUINE],0.0134
3,CCN(CC)CCCC(C)Nc1ccnc2cc(Cl)ccc12 (stereo unspecified) [CHLOROQUINE],0.00533

# System: Plasmodium falciparum
# Experiment: as §2
# Assay type: functional
# Settings: not given
row,SMILES,IC90 [µg/mL]
1,CC(C)N1C(=O)C(=O)N=C1NC(=N)Nc1ccc(Cl)c(Cl)c1,10.9
2,O[C@@H](c1cc(C(F)(F)F)nc2c(C(F)(F)F)cccc12)C1CCCCN1 (stereo partly specified) [MEFLOQUINE],0.00401
3,CCN(CC)CCCC(C)Nc1ccnc2cc(Cl)ccc12 (stereo unspecified) [CHLOROQUINE],0.199

# System: Plasmodium falciparum
# Experiment: as §3
# Assay type: functional
# Settings: not given
row,SMILES,IC90 [µg/mL]
1,CC(C)N1C(=O)C(=O)N=C1NC(=N)Nc1ccc(Cl)c(Cl)c1,11.3
2,O[C@@H](c1cc(C(F)(F)F)nc2c(C(F)(F)F)cccc12)C1CCCCN1 (stereo partly specified) [MEFLOQUINE],0.044
3,CCN(CC)CCCC(C)Nc1ccnc2cc(Cl)ccc12 (stereo unspecified) [CHLOROQUINE],0.0552

# System: Plasmodium yoelii
# Experiment: In vitro antimalarial activity dosed at 1 mg/kg against exoerythrocytic Plasmodium yoelii in mice (Mus musculus) hepatocytes
# Settings: Hepatocyte
row,SMILES,inhibition in vivo at 1 mg/kg [%]
1,CC(C)N1C(=O)C(=O)N=C1N/C(=N\C(=O)OC(C)(C)C)Nc1ccc(Cl)c(Cl)c1,69
2,CC(C)N1C(=O)C(=O)N=C1NC(=N)Nc1ccc(Cl)c(Cl)c1,50
3,CCOC(=O)N/C(=N/C(C)C)NC1=NC(=O)C(=O)N1c1ccc(Cl)c(Cl)c1,10
4,CC(C)/N=C(/NC(=O)OCc1ccccc1)NC1=NC(=O)C(=O)N1c1ccc(Cl)c(Cl)c1,6.7
5,COc1cc(C)c2c(Oc3cccc(C(F)(F)F)c3)c(OC)cc(NC(C)CCCN)c2n1 (stereo unspecified) [TAFENOQUINE],39
6,CC(C)N1C(=O)C(=O)N=C1N/C(=N\C(=O)OCc1ccccc1)Nc1ccc(Cl)c(Cl)c1,25
7,CCOC(=O)/N=C(\NC1=NC(=O)C(=O)N1C(C)C)Nc1ccc(Cl)c(Cl)c1,63

# System: Plasmodium yoelii
# Experiment: Prophylactic activity in infected mouse at 160 mg/kg peroral administration, expressed as no of organisms survived; Not dosed
# Settings: not given
row,SMILES,Activity
1,C=CCCOC(=O)N/C(=N/C(C)C)NC1=NC(=O)C(=O)N1c1ccc(Cl)c(Cl)c1,Not Dosed

# System: Plasmodium yoelii
# Experiment: In vitro antimalarial activity dosed at 10 mg/kg against exoerythrocytic Plasmodium yoelii in mice (Mus musculus) hepatocytes
# Settings: Hepatocyte
row,SMILES,inhibition in vivo at 10 mg/kg [%]
1,CC(C)N1C(=O)C(=O)N=C1N/C(=N\C(=O)OC(C)(C)C)Nc1ccc(Cl)c(Cl)c1,99
2,CC(C)N1C(=O)C(=O)N=C1NC(=N)Nc1ccc(Cl)c(Cl)c1,91
3,CCOC(=O)N/C(=N/C(C)C)NC1=NC(=O)C(=O)N1c1ccc(Cl)c(Cl)c1,98
4,CC(C)/N=C(/NC(=O)OCc1ccccc1)NC1=NC(=O)C(=O)N1c1ccc(Cl)c(Cl)c1,87
5,COc1cc(C)c2c(Oc3cccc(C(F)(F)F)c3)c(OC)cc(NC(C)CCCN)c2n1 (stereo unspecified) [TAFENOQUINE],96
6,CC(C)N1C(=O)C(=O)N=C1N/C(=N\C(=O)OCc1ccccc1)Nc1ccc(Cl)c(Cl)c1,43
7,CCOC(=O)/N=C(\NC1=NC(=O)C(=O)N1C(C)C)Nc1ccc(Cl)c(Cl)c1,99

# System: Plasmodium yoelii
# Experiment: Prophylactic activity in infected mouse at 160 mg/kg peroral administration, expressed as no of organisms survived; Toxicity death
# Settings: not given
row,SMILES,Activity
1,COc1cc(C)c2c(Oc3cccc(C(F)(F)F)c3)c(OC)cc(NC(C)CCCN)c2n1 (stereo unspecified) [TAFENOQUINE],Toxicity death

# System: Plasmodium yoelii
# Experiment: Prophylactic activity in infected mouse at 5 mg/kg peroral administration, expressed as no of organisms survived; Total organisms= 5
# Settings: route oral
row,SMILES,Activity
1,CCOC(=O)N/C(=N/C(C)C)NC1=NC(=O)C(=O)N1c1ccc(Cl)c(Cl)c1,1
2,CC(C)/N=C(/NC(=O)OCc1ccccc1)NC1=NC(=O)C(=O)N1c1ccc(Cl)c(Cl)c1,3
3,COc1cc(C)c2c(Oc3cccc(C(F)(F)F)c3)c(OC)cc(NC(C)CCCN)c2n1 (stereo unspecified) [TAFENOQUINE],5

# System: Plasmodium yoelii
# Experiment: Prophylactic activity in infected mouse at 10 mg/kg peroral administration, expressed as no of organisms survived; Total organisms= 5
# Settings: route oral
row,SMILES,Activity
1,CC(C)N1C(=O)C(=O)N=C1N/C(=N\C(=O)OC(C)(C)C)Nc1ccc(Cl)c(Cl)c1,0
2,CCOC(=O)N/C(=N/C(C)C)NC1=NC(=O)C(=O)N1c1ccc(Cl)c(Cl)c1,1
3,CC(C)/N=C(/NC(=O)OCc1ccccc1)NC1=NC(=O)C(=O)N1c1ccc(Cl)c(Cl)c1,2
4,COc1cc(C)c2c(Oc3cccc(C(F)(F)F)c3)c(OC)cc(NC(C)CCCN)c2n1 (stereo unspecified) [TAFENOQUINE],5
5,CCOC(=O)/N=C(\NC1=NC(=O)C(=O)N1C(C)C)Nc1ccc(Cl)c(Cl)c1,2

# System: Plasmodium yoelii
# Experiment: Prophylactic activity in infected mouse at 20 mg/kg peroral administration, expressed as no of organisms survived; Total organisms= 5
# Settings: route oral
row,SMILES,Activity
1,CCOC(=O)N/C(=N/C(C)C)NC1=NC(=O)C(=O)N1c1ccc(Cl)c(Cl)c1,3

# System: Plasmodium yoelii
# Experiment: Prophylactic activity in infected mouse at 40 mg/kg peroral administration, expressed as no of organisms survived; Total organisms= 5
# Settings: route oral
row,SMILES,Activity
1,CC(C)N1C(=O)C(=O)N=C1N/C(=N\C(=O)OC(C)(C)C)Nc1ccc(Cl)c(Cl)c1,2
2,CCOC(=O)N/C(=N/C(C)C)NC1=NC(=O)C(=O)N1c1ccc(Cl)c(Cl)c1,5
3,CC(C)/N=C(/NC(=O)OCc1ccccc1)NC1=NC(=O)C(=O)N1c1ccc(Cl)c(Cl)c1,2
4,COc1cc(C)c2c(Oc3cccc(C(F)(F)F)c3)c(OC)cc(NC(C)CCCN)c2n1 (stereo unspecified) [TAFENOQUINE],5
5,CC(C)N1C(=O)C(=O)N=C1N/C(=N\C(=O)OCc1ccccc1)Nc1ccc(Cl)c(Cl)c1,0
6,CCOC(=O)/N=C(\NC1=NC(=O)C(=O)N1C(C)C)Nc1ccc(Cl)c(Cl)c1,4

# System: Plasmodium yoelii
# Experiment: Prophylactic activity in infected mouse at 80 mg/kg peroral administration, expressed as no of organisms survived; Total organisms= 5
# Settings: route oral
row,SMILES,Activity
1,CCOC(=O)N/C(=N/C(C)C)NC1=NC(=O)C(=O)N1c1ccc(Cl)c(Cl)c1,5

# System: Plasmodium yoelii
# Experiment: Prophylactic activity in infected mouse at 160 mg/kg peroral administration, expressed as no of organisms survived; Total organisms= 5
# Settings: route oral
row,SMILES,Activity
1,CC(C)N1C(=O)C(=O)N=C1N/C(=N\C(=O)OC(C)(C)C)Nc1ccc(Cl)c(Cl)c1,5
2,CC(C)/N=C(/NC(=O)OCc1ccccc1)NC1=NC(=O)C(=O)N1c1ccc(Cl)c(Cl)c1,3
3,CC(C)N1C(=O)C(=O)N=C1N/C(=N\C(=O)OCc1ccccc1)Nc1ccc(Cl)c(Cl)c1,0
4,CCOC(=O)/N=C(\NC1=NC(=O)C(=O)N1C(C)C)Nc1ccc(Cl)c(Cl)c1,5

# System: Plasmodium yoelii
# Experiment: Prophylactic activity in infected mouse at 2.5 mg/kg peroral administration, expressed as no of organisms survived; Total organisms= 5
# Settings: route oral
row,SMILES,Activity
1,CC(C)/N=C(/NC(=O)OCc1ccccc1)NC1=NC(=O)C(=O)N1c1ccc(Cl)c(Cl)c1,0
2,COc1cc(C)c2c(Oc3cccc(C(F)(F)F)c3)c(OC)cc(NC(C)CCCN)c2n1 (stereo unspecified) [TAFENOQUINE],3
3,CCOC(=O)/N=C(\NC1=NC(=O)C(=O)N1C(C)C)Nc1ccc(Cl)c(Cl)c1,0
